Measured values as given in patent US20260092054A1, “FUSED RING COMPOUND AND PHARMACEUTICAL CONTAINING SAME” (KAKEN PHARMACEUTICAL CO., LTD., priority 2022, published 2026).
pIC50: −log10 of the molar value.

What was measured:
[1] = target: T1, human STAT6/pIL-4Rα (Homo sapiens, UniProt P42226); assay: Binding inhibitory activity between human STAT6/pIL-4Rα by fluorescence polarization method; details: rhSTAT6 (123-658) / FAM-pIL-4Rα peptide
T1 construct: histidine tag
T1 sequence (P42226 123-658): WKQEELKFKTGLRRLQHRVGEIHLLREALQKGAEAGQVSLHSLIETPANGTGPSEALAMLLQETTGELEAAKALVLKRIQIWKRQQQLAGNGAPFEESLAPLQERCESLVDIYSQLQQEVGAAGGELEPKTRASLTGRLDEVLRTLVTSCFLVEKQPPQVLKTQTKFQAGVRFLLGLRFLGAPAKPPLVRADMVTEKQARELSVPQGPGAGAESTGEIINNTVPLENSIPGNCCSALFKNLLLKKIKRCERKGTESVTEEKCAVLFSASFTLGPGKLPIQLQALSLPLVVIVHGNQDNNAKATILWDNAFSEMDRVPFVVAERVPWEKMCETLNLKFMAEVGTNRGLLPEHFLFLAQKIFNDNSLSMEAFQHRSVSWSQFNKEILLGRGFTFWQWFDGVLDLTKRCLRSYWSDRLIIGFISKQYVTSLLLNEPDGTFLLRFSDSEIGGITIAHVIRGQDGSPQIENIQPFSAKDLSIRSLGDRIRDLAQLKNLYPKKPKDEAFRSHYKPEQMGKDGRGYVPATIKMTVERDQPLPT
Method: Test Example 1: Measurement of Binding Inhibitory Activity Between Human STAT6/pIL-p 4Rα by Fluorescence Polarization Method
1) Construction of Histidine Tag-Fused Recombinant Human STAT6 (123 to 658 Region)
A histidine tag-fused recombinant human STAT6 (hereinafter referred to as rhSTAT6) expression vector [plasmid DNA in which a nucleic acid sequence containing human STAT6 (123-658 region) was inserted into a pET28a(+) vector (Novagen)] was inserted into E. coli, and the cells were cultured overnight under culturing conditions at 17° C. with IPTG treatment. After disrupting E. coli with a high-pressure homogenizer (EmulsiFlex-C3, manufactured by AVESTIN, Inc.), affinity purification using Ni-NTA agarose (manufactured by Qiagen), cation exchange chromatography using HiTrap® CM-FF (manufactured by GE healthcare), and gel filtration chromatography using Superdex® 200 10/300GL (manufactured by GE healthcare) were performed to obtain rhSTAT6.
2) Measurement of Binding Inhibitory Activity Between Human STAT6/pIL-4Rα by Fluorescence Polarization Method
A DMSO solution of the example compound was diluted with an assay buffer [for example, a buffer containing 50 mmol/L NaCl, 10 mmol/L HEPES (pH 7.0), 1 mmol/L DTT, 1 mmol/L EDTA, and 0.01 vol % NP-40, and the like] to prepare a compound-added solution. The DMSO concentration in the compound addition solution was adjusted to 1 or 2 vol %. 10 μL of the compound addition solution and an assay buffer containing 1 or 2 vol % DMSO were added to each well of a 384-well plate. 5 μL of an assay buffer solution containing rhSTAT6 (rhSTAT6 concentration: for example, 1 μmol/L) or an assay buffer was added to each well of a 384-well plate. After leaving the plate at room temperature for 30 minutes in the dark, 5 μL of an assay buffer solution (FAM-pIL-4Rp concentration: for example, 80 nmol/L) containing FAM-labeled phosphorylated IL-4Rα peptide (sequence: FAM-Ala-pTyr-Lys-Pro-Phe-Gln-Asp-Leu-IIe-NH2) (hereinafter, FAM-pIL-4Rp) or an assay buffer containing 2 vol % DMSO was added to each well of the 384-well plate. The mixture was left to stand at room temperature for 30 minutes in the dark, and then centrifuged (200 g, 1 minute, room temperature). Fluorescence polarization values were measured using Infinite (registered trademark) F500 (manufactured by Tecan Japan Co., Ltd.) (Excitation: 485 nm, Emission: 535 nm). The inhibition rate of each Example compound was calculated according to the following formula using the fluorescence polarization value (A) when rhSTAT6 and FAM-pIL-4Rp were added without adding the Example compound, the fluorescence polarization value (B) when FAM-pIL-4Rp was added without adding the Example compound and rhSTAT6, and the fluorescence polarization value (C) when each Example compound, rhSTAT6, and FAM-pIL-4Rp were added.
In the evaluation of each example compound, the 50% inhibitory concentration (IC50) of each example compound was calculated from a linear function equation of a straight line connecting two points sandwiching 50%.

[2] = tested on: human STAT6; assay: Human STAT6 dependent reporter activity (IL-4 stimulated STAT6 reporter assay using STAT6-HEK293 cells); type: cell-based; details: Homo sapiens, IL-4 stimulation, luciferase activity, read-out: Inhibition rate (%); for inhibition at 0.1 µM: compound 0.1 μmol/L; for inhibition at 1 µM: compound 1 μmol/L
Method: Test Example 2: Measurement of Human STAT6 Dependent Reporter Activity
1) Construction of Human STAT6-HEK293 Cells
HEK 293 cells maintenance cultured by [Penicillin-Streptomycin (Thermo Fisher Scientific) and FBS, 1 vol % and 10 vol % respectively added to DMEM high glucose (Thermo Fisher Scientific)](manufactured by ATCC) were collected, and suspended in 10 mL of 0.5% BSA/PBS. 1×10^6 cells were collected, the supernatant was removed by centrifuging, and the cells were suspended in 100 μL of Nucleofector solution V (manufactured by Lonza K.K.). 2 μg of STAT6 vector [plasmid DNAs incorporating human STAT6 sequences in pcDNA3.1 (Invitrogen)] was added, and the STAT6 vector was introduced into the HEK293 cells using the program Q-001 initially registered in the Nucleofector®2b. A cell line (STAT6-HEK293 cells) consistently expressing STAT6 was acquired by selecting resistant cells in a medium containing Geneticin® (manufactured by Thermo Fisher Scientific). 2) STAT6 reporter assay using STAT6-HEK293 cells 3×10^6 STAT6-HEK293 cells maintained in assay medium [culture medium supplemented with 1 vol % Geneticin®] were harvested and seeded in a 10 cm dish. 3 μg of a STAT6 reporter vector [plasmid in which a sequence containing a STAT6 binding sequence and a C/EBP binding sequence in tandem was incorporated into pGL4.27 (manufactured by Promega Corporation)] and 9 μL of FuGENE® HD transfection reagent (manufactured by Promega Corporation) were added to 500 μL of Opti-MEM® (manufactured by Thermo Fisher Scientific) to prepare transfection solutions. The transfection solution was vortexed and left to stand for about 5 minutes, then added dropwise to the STAT6-HEK293 cells, which were then cultured overnight in a C02 incubator to produce STAT6 reporter cells.
The prepared STAT6 reporter cells were seeded on B&W isoplate-96 TC (PerkinElmer Japan Co., Ltd.) (3×10^4 cells/50 μL/well) and cultured overnight in a C02 incubator (37° C., 5% C02). 50 μL of assay medium was added to each well instead of the STAT6 reporter cells. The compound addition solution was prepared by diluting the DMSO solution of the example compound 250-fold using the assay medium. 20 μL of compound addition solution or 0.4 vol % DMSO-containing assay medium was added to the plate, and the plate was then cultured in a CO2 incubator for 1 hour. 10 μL of 80 ng/mL human IL-4 solution (Peprotech) or assay medium was added to each well, and the cells were cultured in a CO2 incubator for 6 hours.
STAT6 reporter activity was measured using the Bright-Glo® Luciferase Assay System (Promega). 100 μL of Bright-Glo® reagent was added to each well, and luciferase activity was measured using Infinite® F500. The inhibition rate of each Example compound was calculated by the following formula using the luciferase activity value (G) when no Example compound was added and stimulation with IL-4 was performed, the luciferase activity value (H) when no Example compound was added and stimulation with IL-4 was not performed, and the luciferase activity value (I) when each Example compound was treated and stimulation with IL-4 was performed.
Note that the viable cell rate under each condition was 70% or more, and it was determined that the luciferase activity inhibitory activity of each example compound was appropriately evaluated.

Row | SMILES | pIC50 [1] | inhibition at 0.1 µM [2] | inhibition at 1 µM [2]
1 | CCn1c(-c2ccc(N3C(=O)C(C)CC3C)cc2)nc2cc(C(F)(F)F)cc(C(=O)Nc3cccc(C(N)=O)c3)c21 (single isomer, unassigned) [Ex. 13] | 5.04 |  | 
2 | CCn1c(-c2ccc(N3C(=O)C(C)CC3C)cc2)nc2cc(C(F)(F)F)cc(C(=O)Nc3cccc(C(N)=O)c3F)c21 (single isomer, unassigned) [Ex. 220] | 5.02 |  | 
3 | CC1CC(C)N(c2ccc(-c3cc4ccnc(C(=O)Nc5ccc(F)c(C(N)=O)c5)c4n3CC3(C#N)CC3)cc2)C1=O (single isomer, unassigned) [Ex. 222] | 5.51 |  | 
4 | CC1CC(C)N(c2ccc(-c3cc4ccnc(C(=O)Nc5cccc(C(N)=O)c5F)c4n3CC3(C#N)CC3)cc2)C1=O (single isomer, unassigned) [Ex. 224] | 5.80 |  | 
5 | CCn1c(-c2ccc3c(c2)CCN(C(C)=O)C3)nc2cc(C(F)(F)F)cc(C(=O)Nc3cccc(C(N)=O)c3)c21 [Ex. 3] | 5.64 |  | 
6 | CCn1c(-c2ccc(-c3ncon3)cc2)nc2cc(Br)cc(C(=O)Nc3cccc(C(N)=O)c3)c21 [Ex. 7] |  | 1% | 56%
7 | CCn1c(-c2ccc(-n3ccccc3=O)cc2)nc2cc(C(F)(F)F)cc(C(=O)Nc3cccc(C(N)=O)c3C)c21 [Ex. 10] | 5.49 |  | 
8 | CCn1c(-c2ccc3c(c2)CCOC3C(N)=O)cc2ccnc(C(=O)Nc3ccc(F)c(C(N)=O)c3)c21 (stereo not drawn) [Ex. 28] |  | 43% | 93%
9 | COCCn1c(-c2ccc3c(c2)CCOC3C(=O)O)nc2cc(C(F)(F)F)cc(C(=O)Nc3cccc(C(N)=O)c3)c21 (stereo not drawn) [Ex. 29] | 6.08 |  | 
10 | COCCn1c(-c2ccc3c(c2)CCOC3C(N)=O)nc2cc(C(F)(F)F)cc(C(=O)Nc3cccc(C(N)=O)c3)c21 (stereo not drawn) [Ex. 36] | 6.40 |  | 
11 | COCCn1c(-c2ccc(-n3c(C)nn(C)c3=O)cc2)cc2cc(C(F)(F)F)cc(C(=O)Nc3ccc(F)cc3)c21 [Ex. 53] | 5.40 |  | 
12 | COCCn1c(-c2ccc(-n3c(C)nn(C)c3=O)cc2)cc2cc(C(F)(F)F)cc(C(=O)Nc3ccncc3)c21 [Ex. 54] | 5.47 |  | 
13 | Cc1nn(C)c(=O)n1-c1ccc(-c2cc3cc(C(F)(F)F)cc(C(=O)Nc4ccc(F)c(C(N)=O)c4)c3n2C)cc1 [Ex. 55] | 5.59 |  | 
14 | CCn1c(-c2ccc(-n3c(C)nn(C)c3=O)cc2)cc2cccc(C(=O)Nc3cccc(C(N)=O)c3F)c21 [Ex. 58] | 6.26 |  | 
15 | CCn1c(-c2ccc(-n3c(C)nn(C)c3=O)cc2)cc2cc(F)cc(C(=O)Nc3cccc(C(N)=O)c3F)c21 [Ex. 60] | 6.33 |  | 
16 | COCCn1c(-c2ccc(-n3c(C)nn(C)c3=O)cc2)cc2cc(C(F)(F)F)cc(C(=O)Nc3cccc(S(N)(=O)=O)c3)c21 [Ex. 63] | 5.60 |  | 

Row | SMILES | pIC50 [1] | inhibition at 0.1 µM [2] | inhibition at 1 µM [2]
17 | CCn1c(-c2ccc(-n3cnn(C)c3=O)cn2)cc2cc(C(F)(F)F)cc(C(=O)Nc3ccc(F)c(C(N)=O)c3)c21 [Ex. 64] | 5.58 |  | 
18 | CCn1c(-c2ccc(N3CCCCC3=O)cc2)cc2cc(C(F)(F)F)cc(C(=O)Nc3ccc(F)c(C(N)=O)c3)c21 [Ex. 71] | 5.93 |  | 
19 | COCCn1c(-c2ccc(-n3c(C)nn(C)c3=O)cc2)cc2cc(C(F)(F)F)cc(C(=O)Nc3nncs3)c21 [Ex. 79] | 5.72 |  | 
20 | COCCn1c(-c2ccc(-n3c(C)nn(C)c3=O)cc2)cc2cc(C(F)(F)F)cc(C(=O)Nc3cc[nH]n3)c21 [Ex. 81] | 5.64 |  | 
21 | CCn1c(-c2ccc(-n3c(C)nn(C)c3=O)cc2)cc2ccnc(C(=O)Nc3cccc(C(N)=O)c3)c21 [Ex. 82] | 5.94 |  | 
22 | COCCn1c(-c2ccc(-n3c(C)nn(C)c3=O)cc2)cc2cc(C(F)(F)F)cc(C(=O)Nc3cncs3)c21 [Ex. 86] | 5.75 |  | 
23 | COCCn1c(-c2ccc(-n3c(C)nn(C)c3=O)cc2)cc2cc(C(F)(F)F)cc(C(=O)Nc3cccnn3)c21 [Ex. 87] | 6.00 |  | 
24 | Cc1nn(C)c(=O)n1-c1ccc(-c2cc3ccnc(C(=O)Nc4cccc(C(N)=O)c4F)c3n2CC2CC2)cc1 [Ex. 89] | 6.03 |  | 
25 | CCn1c(-c2ccc(-n3c(C)nn(C)c3=O)cc2)cc2cc(C(F)(F)F)nc(C(=O)Nc3cccc(C(N)=O)c3)c21 [Ex. 96] | 5.72 |  | 
26 | CCn1c(-c2ccc(-n3c(C)nn(C)c3=O)cc2)cc2cc(C(F)(F)F)cc(C(=O)Nc3ccc4c(c3)NC(=O)C4)c21 [Ex. 101] | 5.39 |  | 
27 | CCn1c(-c2ccc(-n3c(C)nn(C)c3=O)cc2)cc2cc(C(F)(F)F)cc(C(=O)Nc3ccc(CC(N)=O)cc3)c21 [Ex. 103] | 5.58 |  | 
28 | CCn1c(-c2ccc(-n3c(C)nn(C)c3=O)cc2)cc2cc(C(F)(F)F)cc(C(=O)Nc3ccc(CC(=O)NC)cc3)c21 [Ex. 104] | 6.14 |  | 
29 | CCn1c(-c2ccc(-n3c(C)nn(C)c3=O)cc2)cc2cc(C(F)(F)F)cc(C(=O)Nc3cc[nH]n3)c21 [Ex. 105] | 6.11 |  | 
30 | COCCn1c(-c2ccc(-n3c(C)nn(C)c3=O)cc2)cc2ccnc(C(=O)Nc3cccc(C(N)=O)c3)c21 [Ex. 106] | 5.71 |  | 
31 | CCn1c(-c2ccc(-n3c(C)nn(C)c3=O)cc2)cc2cc(C(F)(F)F)cc(C(=O)Nc3ccc(CNC(C)=O)cc3)c21 [Ex. 116] | 5.68 |  | 
